Values joined by “and” are separate entries in the source; they are usually repeats but may differ in a detail not shown here. Identical values can stand only once.
Experiments:
Hoodia explants [1] = assay: Effect of BAP and IAA concentrations and combinations on shoot multiplication; format: cell-based, Hoodia gordonii
Experimental: In all the multiplication and later rooting trials, the experiments were carried out in a randomised factorial design with at least four replicates per treatment. The student's t-test was used to determine significant difference between the phytohormone treatments. P values≦0.05 was considered significant.
This example tested the effect of different benzylaminopurine (BAP, cytokinin), indoleacetic acid (IAA, auxin) concentration and combinations on shoot multiplication.
The basal salt medium used for this experiment was M&S basal salt and vitamins. All the other components were the same as used for initiation medium in Example 1. […] Factorial experiments were designed to test the effect of these phytohormones on shoot multiplication.
Each treatment had four replicates. Results were obtained after two sub-cultures.

Hoodia explants [2] = assay: Effect of gibberellic acid concentrations on shoot elongation and proliferation; format: cell-based, Hoodia gordonii; settings: for Number of new shoots: replicates 1-7
Experimental: This Example investigated the effect of various giberellic acid concentrations on shoot elongation and proliferation.
An average of four shoots per explant was observed when the GA3 concentration was increased from 2.89 μM to 5.78 μM with 17.74 μM of BAP and 5.71 μM of IAA. As the concentration increased, the shoot length was retarded but side shoots were formed.

H. gordonii shoot tips = assay: Sterilisation of shoot tips: clean plants free of visible bacteria or fungal growth; parameters: species or system Hoodia gordonii
Experimental: Example 1 investigated the effect of various sterilization protocols on the number of clean shoots and their ability to produce new shoots after sterilization.
A total of 211 shoot tips (5-6 cm) of fresh H. gordonii plant material were collected from cultivation sites.
The shoot tips were washed thoroughly for 3-5 minutes under running tap water and liquid detergent to remove any debris from the field. The spikes on some of the plants were carefully removed with a surgical blade before the sterilisation process. […] Each tub contained around 10 shoot tips placed in 300 ml of the sterilizing solution. The tubs were placed on a shaker at low speed 80 rpm for 5 minutes. After 5 minutes, the mercuric chloride was poured out and the plants were rinsed once in sterile distilled water. After rinsing with sterile distilled water, a second sterilisation process with 30% sodium hypochlorite solution was carried out. The tubs were placed on a shaker at a speed of 80 rpm for 30 or 40 minutes. A total of 188 shoots were sterilized for 30 minutes while […] shoots were sterilized for 40 minutes. After draining the sodium hypochlorite, a batch of the plants were rinsed in distilled sterile water before putting in the initiation medium white another batch was placed directly into the initiation medium without rinsing. Recording of the percentage clean plants was done two weeks after initiation. Clean plants were shoots that were free of visible bacteria or fungal growth.
After sterilisation, the shoot tips were cultured on Murashige and Skoog (M&S) basal salt medium with M&S vitamins supplemented with 30 g/l sucrose, 3 g/l gelrite, 25 mg/l cefotaxime. The phytohormones used for the initiation medium were 17.74 μM Benzylaminopurine (BAP) and 5.71 μM Indole acetic acid (IAA). The pH of all the media tested was adjusted to 5.8 with either 1M potassium hydroxide (KOH) or 1N hydrochloric acid (HCl) before autoclaving at 121° C. for 20 minutes. Each 250 ml bottle contained one shoot tip. All the cultures were incubated at 26±2° C. in a growth room with a 16/8 hour light/dark photoperiod (39-90 μE/m^2/s). New shoot growth normally started a week after sterilisation. After two weeks in culture, bottles that were visibly clean were counted.

Hoodia shoots = assay: Effect of sucrose concentration on new shoot formation; format: cell-based, Hoodia gordonii; settings: lowering sucrose from 30 g/l to 20 g/l in the multiplication medium
Source text: Example 6 tested the effect of three sucrose concentrations 0, 20 and 30 g/l on new shoot formation. All the other supplements were the same as for the initiation medium in Example 1. M&S basal salt and vitamin was used as the basal medium.
The sucrose concentrations used for the multiplication experiments were 0, 20 and 30 g/l respectively. There was no multiplication on plants placed in the control (0 g/l) medium which had no sugar. The shoots were stunted and started to turn to yellow after three weeks in culture.

For `c1ccc(CNc2ncnc3[nH]cnc23)cc1` [BAP, benzylaminopurine], the “Average shoots per explant” value (Hoodia explants [1]; BAP 17.74 μM with IAA 5.71 μM) was 4, the Callus growth (Hoodia explants [1]; BAP 17.74 μM with IAA 5.71 μM, compared to BAP 22.19 μM) was “less callus growth” and the “Average side shoots per explant” value (Hoodia explants [1]; BAP 22.19 μM and IAA 5.71 μM) was “four”. For the same compound, the Auxiliary shoots production (Hoodia explants [1]; BAP concentrations higher than 44.38 μM) was “retarded”.
In the case of `C=C1C[C@]23C[C@@]1(O)CC[C@H]2[C@@]12C=C[C@H](O)[C@@](C)(C(=O)O1)[C@H]2[C@@H]3C(=O)O` [GA3, gibberellic acid], the “Number of new shoots” value (Hoodia explants [2]; GA3 1.44 μM) is reported as 1 (3×) and 2 (2×) and 0 (2×), the “Shoot elongation and multiplication” value (Hoodia explants [2]; GA3 2.89 μM and 5.77 μM) is reported as “elongated and multiplied better” and the “Number of new shoots” value (Hoodia explants [2]; GA3 2.89 μM) is reported as 3 (3×) and 2 (2×) and 4 (2×). The “Increase in length of the initial explant” value (Hoodia explants [2]; GA3 5.77 μM) was roughly 1 cm, the “Number of new shoots” value (Hoodia explants [2]; GA3 5.77 μM) was 4 (2×) and 5 (2×) and 6 and 7 and 8 and the “Average shoots per explant” value (Hoodia explants [2]; GA3 increased from 2.89 μM to 5.78 μM with 17.74 μM BAP and 5.71 μM IAA) was “four”.
For `OCl` [sodium hypochlorite], the “Appearance of shoot tips after sterilisation” value (H. gordonii shoot tips; 30 minute treatment) was “still green”, the “Number of clean plants” value (H. gordonii shoot tips; 30 minutes of sterilisation, out of 188 plants) was 170 plants out of 188 and the “Appearance of shoot tips after sterilisation” value (H. gordonii shoot tips; 40 minute treatment) was “heavily bleached on the external tissue”. For the same compound, the “Number of clean plants” value (H. gordonii shoot tips; 40 minutes of sterilisation, out of 44 total) was 41 plants out of 44, the “Difference in time taken for shoots to emerge” value (H. gordonii shoot tips; 40 minutes versus 30 minutes bleach treatment, in favour of 30 minutes) was “about one” and the Contamination rate (H. gordonii shoot tips; sterilizing only with sodium hypochlorite (no mercuric chloride), field grown cultures) was 80%.
With `OC[C@H]1O[C@@](CO)(O[C@H]2O[C@H](CO)[C@@H](O)[C@H](O)[C@H]2O)[C@@H](O)[C@@H]1O` [sucrose] the “Effect on shoot development and multiplication” value (Hoodia shoots) was “no significant effect”.

— US20080261309A1, “IN VITRO MULTIPLICATION OF HOODIA PLANTS” (CONOPCO, INC., D/B/A/ UNILEVER, priority 2007, published 2008)
